How the values were obtained:
rat OPC = test: Monoculture rat OPC differentiation assay; settings: alone or in combination with miconazole
mSGPL1 [1] = biological target: T1, mSGPL1 (Mus musculus, UniProt Q8R0X7); test: AEA-DA probe interactions with mSGPL1 in vitro; type: binding; settings: Fig. S3c
T1 sequence (Q8R0X7 1-568): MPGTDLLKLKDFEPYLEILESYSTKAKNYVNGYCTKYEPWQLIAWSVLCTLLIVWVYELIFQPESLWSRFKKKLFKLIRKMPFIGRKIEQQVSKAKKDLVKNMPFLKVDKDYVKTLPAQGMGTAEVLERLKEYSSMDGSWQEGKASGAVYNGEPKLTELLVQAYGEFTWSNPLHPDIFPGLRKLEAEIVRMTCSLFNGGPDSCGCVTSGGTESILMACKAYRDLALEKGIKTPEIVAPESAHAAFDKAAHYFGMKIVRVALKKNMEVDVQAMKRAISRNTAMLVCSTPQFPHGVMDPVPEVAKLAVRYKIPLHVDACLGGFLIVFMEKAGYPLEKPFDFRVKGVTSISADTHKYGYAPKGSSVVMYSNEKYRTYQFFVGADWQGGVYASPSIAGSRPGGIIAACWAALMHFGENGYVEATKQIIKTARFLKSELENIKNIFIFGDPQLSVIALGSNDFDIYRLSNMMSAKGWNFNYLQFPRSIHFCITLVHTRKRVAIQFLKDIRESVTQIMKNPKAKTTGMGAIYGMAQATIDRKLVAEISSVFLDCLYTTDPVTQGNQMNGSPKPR

ABHD10 = biological target: T2, ABHD10 (Homo sapiens, UniProt Q9NUJ1); test: LiPIP probe competition in HEK293T cells, off-target ABHD10; type: binding; settings: ligand 25 μM
T2 sequence (Q9NUJ1 53-306): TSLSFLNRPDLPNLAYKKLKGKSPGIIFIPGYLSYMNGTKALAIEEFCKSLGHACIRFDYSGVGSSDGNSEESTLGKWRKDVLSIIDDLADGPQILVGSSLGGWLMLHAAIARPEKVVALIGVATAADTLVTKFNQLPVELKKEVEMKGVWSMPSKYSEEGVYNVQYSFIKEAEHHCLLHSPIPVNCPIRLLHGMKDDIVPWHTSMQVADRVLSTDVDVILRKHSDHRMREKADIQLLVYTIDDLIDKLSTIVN

ABHD5 = biological target: T3, ABHD5 (Homo sapiens, UniProt Q8WTS1); test: LiPIP; type: binding; settings: ligand at both 5 and 25 μM; probe 10 μM; HEK293T cells
T3 sequence (Q8WTS1 1-349): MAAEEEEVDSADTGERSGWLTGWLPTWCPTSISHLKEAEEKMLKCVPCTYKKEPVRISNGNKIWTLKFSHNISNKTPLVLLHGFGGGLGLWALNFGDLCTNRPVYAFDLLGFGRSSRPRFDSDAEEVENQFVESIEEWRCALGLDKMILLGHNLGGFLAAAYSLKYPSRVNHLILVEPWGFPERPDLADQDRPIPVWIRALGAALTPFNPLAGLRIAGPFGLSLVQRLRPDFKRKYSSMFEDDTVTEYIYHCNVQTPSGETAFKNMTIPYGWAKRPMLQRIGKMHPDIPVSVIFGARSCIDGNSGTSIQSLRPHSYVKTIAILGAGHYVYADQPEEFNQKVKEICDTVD

PNPLA2 = biological target: T4, PNPLA2 (Homo sapiens, UniProt Q96AD5); test: LiPIP probe competition in HEK293T cells, PNPLA2; type: binding; settings: unaltered lipid probe enrichment ratio
T4 sequence (Q96AD5 1-504): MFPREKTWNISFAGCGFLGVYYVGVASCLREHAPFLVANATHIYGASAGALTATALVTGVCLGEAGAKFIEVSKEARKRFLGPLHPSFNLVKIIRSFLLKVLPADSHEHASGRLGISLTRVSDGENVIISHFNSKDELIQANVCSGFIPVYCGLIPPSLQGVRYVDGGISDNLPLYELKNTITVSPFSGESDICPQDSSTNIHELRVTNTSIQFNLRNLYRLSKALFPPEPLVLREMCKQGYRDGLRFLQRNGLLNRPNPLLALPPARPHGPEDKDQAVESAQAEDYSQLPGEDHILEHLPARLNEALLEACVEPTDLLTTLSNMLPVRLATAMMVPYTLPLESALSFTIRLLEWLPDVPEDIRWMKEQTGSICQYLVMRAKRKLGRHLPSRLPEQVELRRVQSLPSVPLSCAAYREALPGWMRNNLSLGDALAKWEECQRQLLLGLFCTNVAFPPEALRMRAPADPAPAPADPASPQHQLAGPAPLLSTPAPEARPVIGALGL

EPHX2 = biological target: T5, EPHX2 (Homo sapiens, UniProt P34913); test: LiPIP probe competition in HEK293T cells, off-target EPHX2; type: binding; settings: ligand 25 μM
T5 sequence (P34913 1-555): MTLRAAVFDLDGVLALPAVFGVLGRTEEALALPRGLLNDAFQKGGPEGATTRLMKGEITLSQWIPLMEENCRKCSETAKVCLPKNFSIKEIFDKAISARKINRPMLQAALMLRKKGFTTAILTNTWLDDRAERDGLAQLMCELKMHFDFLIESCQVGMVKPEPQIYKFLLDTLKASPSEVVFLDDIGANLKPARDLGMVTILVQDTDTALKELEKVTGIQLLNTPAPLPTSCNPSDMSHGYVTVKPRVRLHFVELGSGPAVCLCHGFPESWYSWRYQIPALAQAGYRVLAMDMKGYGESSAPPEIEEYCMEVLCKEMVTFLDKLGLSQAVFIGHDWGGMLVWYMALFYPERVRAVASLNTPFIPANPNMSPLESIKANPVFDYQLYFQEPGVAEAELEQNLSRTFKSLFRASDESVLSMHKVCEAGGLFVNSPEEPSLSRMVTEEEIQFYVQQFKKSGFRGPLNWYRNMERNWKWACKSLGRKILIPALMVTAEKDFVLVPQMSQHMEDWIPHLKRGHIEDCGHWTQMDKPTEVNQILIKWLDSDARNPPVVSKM

[2] = test system: oligodendrocyte precursor cell (OPC); settings: cited from earlier work
hSGPL1 = biological target: T6, hSGPL1 (Homo sapiens, UniProt O95470); type: biochemical
T6 sequence (O95470 1-568): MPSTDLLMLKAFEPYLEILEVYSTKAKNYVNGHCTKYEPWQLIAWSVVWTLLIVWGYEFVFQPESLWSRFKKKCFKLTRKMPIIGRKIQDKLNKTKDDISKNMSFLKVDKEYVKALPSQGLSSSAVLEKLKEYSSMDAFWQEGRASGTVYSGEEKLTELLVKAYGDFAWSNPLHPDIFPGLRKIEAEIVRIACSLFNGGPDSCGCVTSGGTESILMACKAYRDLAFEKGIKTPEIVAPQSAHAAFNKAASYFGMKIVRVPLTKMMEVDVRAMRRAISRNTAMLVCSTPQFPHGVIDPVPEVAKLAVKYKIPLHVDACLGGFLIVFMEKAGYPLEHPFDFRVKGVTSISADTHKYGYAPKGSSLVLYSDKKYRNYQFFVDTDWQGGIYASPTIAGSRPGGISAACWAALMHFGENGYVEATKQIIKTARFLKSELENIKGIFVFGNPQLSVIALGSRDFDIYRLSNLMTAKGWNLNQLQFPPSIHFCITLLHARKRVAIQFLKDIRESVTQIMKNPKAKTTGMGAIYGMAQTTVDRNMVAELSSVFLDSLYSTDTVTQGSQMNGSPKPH

Neuro2a cells = test: Endogenous S1P content of Neuro2a cells by targeted LC-MS/MS; type: cell-based, mouse; settings: 6 h treatment
TMEM97 = biological target: T7, TMEM97 (Mus musculus, UniProt Q8VD00); test: LiPIP in Neuro2a cells, TMEM97; type: binding; settings: drug 30 μM, lipid probe 10 μM
T7 sequence (Q8VD00 1-176): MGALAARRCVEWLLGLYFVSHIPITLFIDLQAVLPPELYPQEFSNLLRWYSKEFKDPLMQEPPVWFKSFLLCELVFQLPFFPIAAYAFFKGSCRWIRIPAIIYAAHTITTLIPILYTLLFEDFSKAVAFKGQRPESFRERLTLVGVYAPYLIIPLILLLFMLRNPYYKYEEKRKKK

CLPP = CLPP (Mus musculus, UniProt O88696); test: LiPIP in Neuro2a cells, CLPP; type: binding; settings: drug 30 μM, lipid probe 10 μM
mSGPL1 [3] = biological target: T1, mSGPL1; type: biochemical; settings: tested at concentrations up to 200 μM
rSGPL1 = biological target: T8, rSGPL1 (Rattus norvegicus, UniProt Q8CHN6); type: biochemical; settings: tested at concentrations up to 200 μM
T8 sequence (Q8CHN6 1-568): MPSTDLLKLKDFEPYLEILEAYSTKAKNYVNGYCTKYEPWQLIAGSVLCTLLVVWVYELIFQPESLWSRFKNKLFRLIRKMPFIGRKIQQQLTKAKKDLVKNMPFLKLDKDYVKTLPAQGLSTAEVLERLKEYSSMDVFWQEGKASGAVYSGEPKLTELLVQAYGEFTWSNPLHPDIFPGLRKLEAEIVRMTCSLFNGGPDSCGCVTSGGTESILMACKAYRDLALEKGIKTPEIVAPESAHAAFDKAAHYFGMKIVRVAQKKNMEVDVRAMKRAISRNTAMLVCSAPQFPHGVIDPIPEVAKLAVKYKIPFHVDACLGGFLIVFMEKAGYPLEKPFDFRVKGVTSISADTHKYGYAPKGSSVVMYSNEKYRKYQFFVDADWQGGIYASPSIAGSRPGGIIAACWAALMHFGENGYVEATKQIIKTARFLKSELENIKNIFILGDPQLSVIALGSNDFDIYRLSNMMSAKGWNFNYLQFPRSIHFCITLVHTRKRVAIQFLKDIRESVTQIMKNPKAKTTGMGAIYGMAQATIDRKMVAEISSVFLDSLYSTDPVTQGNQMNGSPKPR

EPHX1 = biological target: T9, EPHX1 (Mus musculus, UniProt Q9D379); test: LiPIP in Neuro2a cells, EPHX1; type: binding; settings: drug 30 μM, lipid probe 10 μM
T9 sequence (Q9D379 1-455): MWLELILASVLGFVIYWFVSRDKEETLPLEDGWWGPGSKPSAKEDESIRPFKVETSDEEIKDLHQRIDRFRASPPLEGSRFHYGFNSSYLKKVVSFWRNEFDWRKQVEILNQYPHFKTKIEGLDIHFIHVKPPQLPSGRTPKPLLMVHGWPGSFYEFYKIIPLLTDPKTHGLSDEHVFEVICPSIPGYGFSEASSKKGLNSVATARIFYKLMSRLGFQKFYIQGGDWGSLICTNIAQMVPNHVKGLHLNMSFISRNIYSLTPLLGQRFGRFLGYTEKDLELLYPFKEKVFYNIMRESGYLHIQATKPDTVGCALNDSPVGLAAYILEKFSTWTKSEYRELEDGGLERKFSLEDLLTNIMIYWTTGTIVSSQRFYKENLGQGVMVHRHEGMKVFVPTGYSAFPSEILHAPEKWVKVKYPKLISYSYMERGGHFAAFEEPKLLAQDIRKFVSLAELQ

SGPL1 = biological target: T10, SGPL1 (Mus musculus, UniProt Q8R0X7); test: LiPIP in Neuro2a cells, SGPL1; type: binding; settings: drug 30 μM, lipid probe 10 μM
T10 sequence (Q8R0X7 1-568): T1 sequence (Q8R0X7 1-568)

mSGPL1 [4] = biological target: T1, mSGPL1; test: Gel-based blockade of AEA-DA labeling of recombinant mSGPL1 in HEK293T cells; type: binding; settings: recombinant mSGPL1 expressed in HEK293T cells; AEA-DA 2 μM

Sequence of CLPP (O88696 53-272): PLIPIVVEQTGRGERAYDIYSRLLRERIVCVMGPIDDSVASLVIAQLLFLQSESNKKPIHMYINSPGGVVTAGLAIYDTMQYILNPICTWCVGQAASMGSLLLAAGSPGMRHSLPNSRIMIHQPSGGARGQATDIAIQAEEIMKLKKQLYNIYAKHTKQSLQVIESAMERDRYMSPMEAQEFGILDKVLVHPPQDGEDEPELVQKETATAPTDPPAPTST

## CCCCCCCCc1ccc(CC[C@](N)(CO)COP(=O)(O)O)cc1 [(S)-pFTY720]
Rat OPC
  effect on OPC differentiation (MBP+ cells): no impact on OPC differentiation

## CCCCCCCCCCCCC/C=C/[C@@H](O)[C@@H](N)COP(=O)(O)O [S1P, sphingosine 1-phosphate]
mSGPL1 [1]
  blockade of AEA-DA probe interactions with mSGPL1 in vitro: inhibited AEA-DA binding to SGPL1

## Cc1ccc2c(CC(=O)N3CCN(S(=O)(=O)c4ccc5c(c4)OCCO5)CC3)coc2c1 [SR-4559]
ABHD10
  SILAC ratio (LiPIP probe displacement), ABHD10: ≥ 3.0
ABHD5
  blocking the A-DA or AEA-DA probe interaction with ABHD5: > 80%
PNPLA2
  engagement of PNPLA2 (lipid probe enrichment ratio): not directly engaged

## CCCCNC(=O)Nc1ccc2c(c1)N(C)C(=O)c1ccccc1S2 [SR-4995]
ABHD5
  blocking the A-DA or AEA-DA probe interaction with ABHD5: > 80%
PNPLA2
  engagement of PNPLA2 (lipid probe enrichment ratio): not directly engaged
EPHX2
  SILAC ratio (LiPIP probe displacement), EPHX2: ≥ 3.0

## C[C@@H]1CN(c2nnc(Cc3ccccc3)c3ccc(C#N)cc23)CCN1c1ccc(C#N)cn1 [compound 11, (R)-1-benzyl-4-(4-(5-cyanopyridin-2-yl)-3-methylpiperazin-1-yl)phthalazine-6-carbonitrile]
Rat OPC
  effect on OPC differentiation (MBP+ cells): did not promote OPC differentiation

## Clc1ccc(COC(Cn2ccnc2)c2ccc(Cl)cc2Cl)c(Cl)c1 (stereo not drawn) [miconazole]
Rat OPC
  effect on OPC differentiation (MBP+ cells): promotion of rat OPC differentiation
[2]
  OPC differentiation by phenotypic screening: promote oligodendrocyte precursor cell (OPC) differentiation
hSGPL1
  IC50: 6.5 µM
hSGPL1; fluorogenic S1P substrate analog
  maximal inhibition of hSGPL1 (plateau): 40%
Neuro2a cells
  effect on endogenous S1P content: increased the endogenous S1P content

## C[C@@H](c1ncncc1F)[C@](O)(Cn1cncn1)c1ccc(F)cc1F [voriconazole]
TMEM97
  SILAC ratio (light/heavy), TMEM97: ~ 1.0
CLPP
  SILAC ratio (light/heavy), CLPP: ~ 1.0
mSGPL1 [1]
  blockade of AEA-DA probe interactions with mSGPL1 in vitro: but not voriconazole
mSGPL1 [3]
  inhibition of mSGPL1 activity: did not inhibit
[2]
  OPC differentiation by phenotypic screening: inactive
rSGPL1
  inhibition of rSGPL1 activity: did not inhibit
EPHX1
  SILAC ratio (light/heavy), EPHX1: ~ 1.0
SGPL1
  SILAC ratio (light/heavy), SGPL1: ~ 1.0
hSGPL1; tested at concentrations up to 200 μM
  inhibition of hSGPL1 activity: did not inhibit
mSGPL1 [4]
  blockade of AEA-DA probe binding to mSGPL1: but not voriconazole

From PMC5650530 (ACS chemical biology, 2017)
